The results in this text go back to BindingDB's records for doi:10.1016/S0960-894X(00)80673-3 (1993).

pKi: −log10 of the molar value.

The assay deals with HIV-2 protease (Human immunodeficiency virus 2). Description: Tested for the inhibition of HIV-2 protease.

For the compound `CCC(C)[C@H](NC(=O)[C@@H](C[C@H](O)[C@H](CC1CCCCC1)NC(=O)[C@H](CC(N)=O)NC(=O)c1ccc2ccccc2n1)C(C)C)C(=O)NCc1ccccn1` (stereo partly drawn) [(S)-N*1*-((1S,2S,4S)-1-Cyclohexylmethyl-2-hydroxy-5-methyl-4-{(S)-2-methyl-1-[(pyridin-2-ylmethyl)-carbamoyl]-butylcarbamoyl}-hexyl)-2-[(quinoline-2-carbonyl)-amino]-succinamide], the negative-log Ki (pKi) was 7.19.

Usually pKi stands for −log10 of the Ki, conventionally taken in molar units. The low end stands for a large Ki, the high end for a small Ki.
